According to patent US9133449B2, “Mutant pyrrolysyl-tRNA synthetase, and method for production of protein having non-natural amino acid integrated therein by using the same” (priority 2007, dated 2015):
“Also recorded” adds a separate entry of the source.

Key:
[1] = target: M. mazei PylRS (wild-type) (Methanosarcina mazei, UniProt Q8PWY1); assay type: biochemical; settings: 37 degrees Celsius 1 h; 0.5 M Lys; 100 mM Ac-Lys; 1 mM Boc-Lys; 1 mM Aloc-Lys; 10 mM Nic-Lys; 7 mM Nma-Lys; 3.5 mM Z-Lys; 1 mM pyrrolysine
[2] = system: GST gene with amber codon (TAG) at the 25th from N terminus, E. coli BL21 (DE3); assay type: cell-based; settings: for expression of 28-kDa GST protein: mutant PylRS (Y384F) and tRNA^Pyl, 4 mM amino acid; for incorporation into a protein with wild-type PylRS: E. coli cells
Text: In order to confirm whether amber suppression (amber mutation suppression) occurs in E. coli cells, the glutathione S-transferase (GST) gene whose tyrosine codon at the 25th from N terminus was mutated to the amber codon (TAG) was cloned into a pET system plasmid. On the other hand, the wild-type and a variety of mutant PylRS genes, as well as tRNA^Pyl genes were cloned into a pACYX system plasmid (see FIG. 6). These two expression vectors were transformed to E. coli BL21 (DE3) to statically culture overnight on LB agar medium including kanamycin and ampicillin. […] Incubation was conducted overnight to induce expression before E. coli cells were harvested to detect expressed GST using SDS-PAGE. […] (SEQ ID NO: 17) (m/z=1327.72 Da) (see FIG. 10).
The same plasmid pTK2-1 as Example 1 was used for expressing PylRS mutant with double amino acid substitutions of Y306A and Y384F and tRNA^Pyl in E. coli cells. Incorporation of a lysine derivative into GST having amber codon at 25th from its N-terminus using this plasmid was performed according to the same method as Example 1. Moreover, specific incorporation of AzZLys [purchased from Shinsei Chemical Company Ltd. (Osaka)] into the amber site in GST using the same plasmid was also performed according to the same method as Example 1. Subsequently, crude extract obtained from E. coli cells in which the GST amber gene was expressed was separated with SDS-PAGE and stained. […] Furthermore, purification of GST was performed with the same method as Example 1.

[3] = system: GRB2 amber gene, HEK c-18 cell
Text: (§1) For expressing PylRS (Y306A, Y384F) mutant and tRNA^P1 in HEK c-18 cell, the system disclosed in the above-mentioned Non-Patent Document 7 was used. Likewise, the mutant gene into which the amber codon was incorporated at the cording region of lac Z gene and GRB2 gene, and the expression system thereof, as disclosed in the above-mentioned Non-Patent Document 7, were used.

[4] = system: lacZ amber gene, HEK c-18 cell
Text: as §1
First, in the animal cells, optimal concentration of AzLys for site-specific incorporation of AzLys into the protein was determined. In media containing 0, 0.01, 0.025, 0.05, 0.1, 0.25 and 0.5 mM of AzZLys, LacZ protein was expressed from the lacZ amber gene to determine the level of expression (relative value) of LacZ with coloring reaction by LacZ. […] In FIG. 17, WT represents the level of expression (relative value) of wild-type (WT) lacZ without any amber codon in the coding region.

GST = settings: FITC-PP3; ca. 37 degrees Celsius for 1 hour (not at ca. 4 degrees Celsius overnight)
Method: A conjugate of fluorophore and triarylphosphine, and the purified full length GST were linked by Staudinger-Bertozzi reaction. As a conjugate, the conjugate with FITC (hereinafter referred to as FITC-PP3) (purchased from Shinsei Chemical Company Ltd.) was used. […] Linkage reaction was performed under two types of reactive conditions, i.e., at ca. 37 degrees Celsius for 1 hour (lhr) and at ca. 4 degrees Celsius overnight (O/N). Subsequently, these GST were separated by SDS-PAGE to detect fluorescence with UV light. […] As to the Staudinger-Bertozzi reaction, see the above-mentioned Non-Patent Documents 5, 6, etc.

Sequence of M. mazei PylRS (wild-type) (Q8PWY1 whole entry E444G, looked up): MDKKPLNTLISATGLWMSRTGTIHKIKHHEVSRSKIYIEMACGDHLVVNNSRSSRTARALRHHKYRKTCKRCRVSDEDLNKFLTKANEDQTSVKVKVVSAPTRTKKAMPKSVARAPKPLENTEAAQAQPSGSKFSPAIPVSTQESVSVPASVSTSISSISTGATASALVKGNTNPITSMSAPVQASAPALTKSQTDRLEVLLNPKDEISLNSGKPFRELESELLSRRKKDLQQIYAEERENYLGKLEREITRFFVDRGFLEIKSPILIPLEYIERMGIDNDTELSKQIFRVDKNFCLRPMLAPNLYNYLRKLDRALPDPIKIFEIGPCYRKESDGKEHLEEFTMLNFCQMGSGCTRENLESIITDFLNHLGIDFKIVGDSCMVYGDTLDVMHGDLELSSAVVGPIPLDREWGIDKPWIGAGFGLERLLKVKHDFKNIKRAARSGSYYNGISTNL

SMILES: CC(=O)NCCCC[C@H](N)C(=O)O [Ac-Lys, N^ε-acetyl-L-lysine]
- activation of amino acid / esterification of tRNA^Pyl by wild-type PylRS [1]: esterified

SMILES: C=CCOC(=O)N[C@@H](CCCCN)C(=O)O [Aloc-Lys, allyloxycarbonyl-lysine]
- activation of amino acid / esterification of tRNA^Pyl by wild-type PylRS [1]: activated at a concentration of 1 mM, as efficiently as pyrrolysine
- expression of 28-kDa GST protein [2]: expressed

SMILES: [N-]=[N+]=Nc1ccc(C[C@H](N)C(=O)O)cc1 [AzF, para-azide-phenylalanine]
- Grb2 modified with fluorescence ([3]; AzFRS system, AzFRS also modified with fluorescence concurrently): modified with fluorescence

SMILES: [N-]=[N+]=Nc1ccccc1COC(=O)NCCCC[C@H](N)C(=O)O [AzZLys, N^ε-Ortho-Azide-Benzyloxycarbonyl-Lysine]
- expression of the full length GST ([2]; PylRS mutant Y306A and Y384F and tRNA^Pyl, 1 mM AzZLys): detected merely in the case of the presence of 1 mM AzZLys
- suppression efficiency (LacZ expression relative to wild-type lacZ) ([4]; PylRS (Y306A, Y384F) and tRNA^Pyl, 0.05 mM AzZLys): approximately 30 % of WT
- concentration at which most efficiently incorporated into the amber site of lacZ ([4]; tested 0, 0.01, 0.025, 0.05, 0.1, 0.25 and 0.5 mM): 0.05 mM
- Grb2 protein labeled with fluorescence ([3]; PylRS (Y306A, Y384F), tRNA^Pyl, FITC-PP3): detected merely in the case of aaRS (+), Grb2 (Am), tRNA (+) and a.a. (+)
- fluorescence-modified GST (GST): detected merely in the case of the reactive condition at ca. 37 degrees Celsius for 1 hour

SMILES: CC(C)(C)OC(=O)N[C@@H](CCCCN)C(=O)O [Boc-Lys, tert-butyloxycarbonyl-lysine]
- activation of amino acid / esterification of tRNA^Pyl by wild-type PylRS [1]: activated at a concentration of 1 mM, as efficiently as pyrrolysine
- expression of 28-kDa GST protein [2]: expressed
- incorporation into a protein with wild-type PylRS [2]: could not efficiently be incorporated

SMILES: CNc1ccccc1C(=O)NCCCC[C@H](N)C(=O)O [Nma-Lys, N^ε-(N-methyl-anthraniloyl)-L-lysine]
- activation of amino acid / esterification of tRNA^Pyl by wild-type PylRS [1]: esterified

SMILES: N[C@@H](CCCCNC(=O)OCc1ccccc1)C(=O)O [Z-Lys, N^ε-benzyloxycarbonyl-L-lysine]
- activation of amino acid / esterification of tRNA^Pyl by wild-type PylRS [1]: merely weakly activated; also recorded: esterified
- production of full length GST protein ([2]; double mutant PylRS (Y384F/Y306A) and tRNA^Pyl, 5 mM Z-Lys): produced
- incorporation into a protein with wild-type PylRS [2]: cannot be incorporated into a protein

SMILES: C[C@@H]1CC=N[C@H]1C(=O)NCCCC[C@H](N)C(=O)O [pyrrolysine, N^6-[(2R,3R)-3-methyl-3,4-dihydro-2H-pyrrole-2-ylcarbonyl]-L-lysine]
- activation of amino acid / esterification of tRNA^Pyl by wild-type PylRS [1]: activates
